Literature values, collected in patent US20110104137A1, “ADJUNCTS AND COMPLEXES FOR IMPROVING HMG-CoA REDUCTASE INHIBITOR (STATIN) AND SELECTIVE PHOSPHODIESTERASE 5 INHIBITOR THERAPY” (ChronoRX LLC, an Alaska Limited Liability Company, priority 2009, published 2011).

Tests used:
[1] = 12 months, IVUS
[2] = atorvastatin 80 mg versus pravastatin 40 mg, after ACS
PGI2 = settings: administered therapeutic dose, humans
[3] = in vivo
NF-kappaB = settings: in vitro and ex-vivo
CETP = target: T1, CETP (Homo sapiens, UniProt P11597)
T1 construct: Circulating CETP mediates the transfer of cholesteryl esters from HDL to LDL; host or cells: patients (endogenous plasma CETP, in vivo)
T1 sequence (P11597 18-493): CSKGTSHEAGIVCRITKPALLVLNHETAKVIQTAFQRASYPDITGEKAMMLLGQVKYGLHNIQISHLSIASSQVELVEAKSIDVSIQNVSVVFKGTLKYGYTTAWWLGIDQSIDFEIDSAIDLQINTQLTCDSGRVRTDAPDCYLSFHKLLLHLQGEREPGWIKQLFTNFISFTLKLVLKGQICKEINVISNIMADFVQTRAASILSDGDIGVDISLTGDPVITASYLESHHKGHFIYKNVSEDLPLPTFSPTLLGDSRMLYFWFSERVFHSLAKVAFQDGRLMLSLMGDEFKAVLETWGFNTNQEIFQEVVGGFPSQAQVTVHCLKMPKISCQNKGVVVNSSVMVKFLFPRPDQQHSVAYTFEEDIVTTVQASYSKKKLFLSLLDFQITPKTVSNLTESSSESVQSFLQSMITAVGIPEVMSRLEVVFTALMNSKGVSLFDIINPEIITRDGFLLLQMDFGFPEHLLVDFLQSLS

[4] = rosuvastatin 40 mg/d
ADMA = settings: in vivo
[5] = no hyperlipidemia, elevated high-sensitivity CRP
[6] = oral L-CAR; placebo group 26.0%
Lp(a) = settings: patients with otherwise elevated levels
[7] = monotherapy and in combination with a statin

CC(C)c1c(C(=O)Nc2ccccc2)c(-c2ccccc2)c(-c2ccc(F)cc2)n1CC[C@@H](O)C[C@@H](O)CC(=O)O [atorvastatin]
progression of mean plaque volume or thickness ([1]; 131 patients, placebo 9.6): 1.2 mm^3
hyperechogenicity of the plaque ([1]; compared to placebo): increased the hyperechogenicity of the plaque
rate of hospitalization for HF [2]: significantly reduced the rate of hospitalization for HF
PGI2 signaling (PGI2): does not significantly decrease PGI2 signaling
interaction with warfarin [3]: potentiate warfarin

O=C(O)CCCCC1CCSS1 (stereo not shown) [LA, 1,2-dithiolane-3-pentanoic acid]
NF-kappaB activation (NF-kappaB): inhibits NF-kappaB activation

CCOC(=O)N1c2ccc(C(F)(F)F)cc2[C@@H](N(Cc2cc(C(F)(F)F)cc(C(F)(F)F)c2)C(=O)OC)C[C@H]1CC [torcetrapib]
mortality (CETP; mean follow-up of 550 days, cardiovascular and noncardiovascular causes): significant increase in mortality
HDL-CHOL levels (CETP; [7]): markedly increased HDL-CHOL levels
LDL-CHOL (CETP; [7]): reduced LDL-CHOL
mean particle size of HDL and LDL (CETP; [7]): increased the mean particle size of both HDL and of LDL

CC[C@H](C)C(=O)O[C@H]1C[C@@H](C)C=C2C=C[C@H](C)[C@H](CC[C@@H]3C[C@@H](O)CC(=O)O3)[C@H]21 [lovastatin]
interaction with warfarin [3]: potentiate warfarin

CC(C)c1nc(N(C)S(C)(=O)=O)nc(-c2ccc(F)cc2)c1/C=C/[C@@H](O)C[C@@H](O)CC(=O)O [rosuvastatin]
average LDL achieved ([4]; 349 patients): 60.8 mg/dL
increase in HDL ([4]; 349 patients): 14.7%
regression of atherosclerosis ([4]; intravascular ultrasound): significant regression of atherosclerosis
effect on plasma ADMA (ADMA): decrease in plasma ADMA
incidence of major cardiovascular events [5]: significantly reduced the incidence of major cardiovascular events
interaction with warfarin [3]: potentiate warfarin

CC(=O)O[C@H](CC(=O)[O-])C[N+](C)(C)C [L-CAR, Acetyl-L-carnitine]
total cardiac events, including cardiac death and nonfatal infarction [6]: 15.6%
plasma Lp(a) (Lp(a)): reduce plasma Lp(a)
